Among the data in ChEMBL document CHEMBL2203051, “Synthesis of new opioid derivatives with a propellane skeleton and their pharmacologies: part 3, novel propellane derivatives with pentacyclic skeletons” (Bioorg Med Chem Lett, 2012) are Ratio Ki and Ki values, retold here.

The species named for one test is Mus musculus. As to the kind of experiment: Selectivity ratio of Ki for delta opioid receptor mouse whole brain without cerebellum to Ki for kappa opioid receptor in mouse whole brain without cerebellum.
Test [1] can be described thus: Selectivity ratio of Ki for mu opioid receptor in […] to Ki for kappa opioid receptor in mouse whole brain without cerebellum.
The target of test [2] is Kappa-type opioid receptor (Mus musculus, UniProt P33534). The experiment in a line: Displacement of [3H]U-69,593 from kappa opioid receptor in mouse whole brain without cerebellum.
Chain of Kappa-type opioid receptor (P33534 whole entry): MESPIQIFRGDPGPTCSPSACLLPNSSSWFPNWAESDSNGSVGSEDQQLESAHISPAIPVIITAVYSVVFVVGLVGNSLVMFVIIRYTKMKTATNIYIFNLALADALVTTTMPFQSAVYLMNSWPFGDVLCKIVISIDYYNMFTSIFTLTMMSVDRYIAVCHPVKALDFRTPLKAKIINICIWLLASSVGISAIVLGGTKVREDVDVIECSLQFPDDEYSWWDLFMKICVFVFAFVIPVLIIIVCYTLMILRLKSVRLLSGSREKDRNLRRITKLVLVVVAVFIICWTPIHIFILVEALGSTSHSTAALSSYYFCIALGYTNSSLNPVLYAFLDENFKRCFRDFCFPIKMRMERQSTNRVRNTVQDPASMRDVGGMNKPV
Test [3] addresses Delta-type opioid receptor (Mus musculus, UniProt P32300). The experiment in a line: Displacement of [3H][…] from delta opioid receptor in mouse whole brain without cerebellum. A general note: In a radioligand displacement assay an active substance lowers the binding of a labelled ligand.
Another test concerns the target Mu-type opioid receptor (Cavia porcellus, UniProt P97266). As to the kind of experiment: Displacement of [3H]DAMGO from mu opioid receptor in […].

Chain of Mu-type opioid receptor (P97266 whole entry): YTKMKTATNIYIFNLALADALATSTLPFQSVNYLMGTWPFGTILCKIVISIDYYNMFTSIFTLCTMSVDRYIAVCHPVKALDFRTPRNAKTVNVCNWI
Chain of Delta-type opioid receptor (P32300 whole entry): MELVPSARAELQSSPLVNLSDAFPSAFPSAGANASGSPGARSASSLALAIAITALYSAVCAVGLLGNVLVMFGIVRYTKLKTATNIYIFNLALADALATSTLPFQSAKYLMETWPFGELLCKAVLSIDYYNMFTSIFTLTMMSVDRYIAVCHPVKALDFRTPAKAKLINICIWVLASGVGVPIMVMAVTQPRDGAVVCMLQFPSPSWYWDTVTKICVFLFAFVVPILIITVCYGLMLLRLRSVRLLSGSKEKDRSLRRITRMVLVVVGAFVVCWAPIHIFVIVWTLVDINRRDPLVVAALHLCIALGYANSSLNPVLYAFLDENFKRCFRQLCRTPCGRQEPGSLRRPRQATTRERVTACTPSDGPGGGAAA

Regarding `O=C1CC23CCN(CC4CC4)C4C[C@@H](O)C1CC42Cc1ccc(O)cc13` (stereo not given in full), the values for the Ratio Ki (in the test filed under Mus musculus; in test [1]) were 8.9 and 1.72, respectively. The results for the Ki (in test [2]; in test [3]; on Mu-type opioid receptor) were 7.63 nM, 67.9 nM and 13.1 nM, respectively.
The matching figures for `O=C1CC23CCN(CC4CC4)C4C=CC1CC42Cc1ccc(O)cc13` (stereo not given): 27.2, 9.17, 1.92 nM, 52.2 nM and 17.6 nM.
Turning to `O=C1CC2N(CC3CC3)CCC34CC(=O)C1CC23Cc1ccc(O)cc14` (stereo not given), the Ratio Ki amounted to 7.26 in the test listed under Mus musculus and 3.31 in test [1]. Further, the Ki in test [2] is 56.5 nM; in test [3], 410 nM; at Mu-type opioid receptor, 187 nM.
For `O=C1CC23CCN(CC4CC4)C4C[C@H](O)C1CC42Cc1ccc(O)cc13` (stereo not given in full) the same measures were 8.72, 4.22, 16.7 nM, 146 nM and 70.7 nM.
The matching figures for `O=C1CC23CCN(CC4CC4)C4CCC1CC42Cc1ccc(O)cc13` (stereo not given): 52, 3.82, 0.84 nM, 43.6 nM and 3.21 nM.

Usually Ki stands for a measure of affinity in units of concentration, obtained from inhibition or displacement.
